Reference: patent publication US20100061928A1, “LABELLED ANALOGUES OF HALOBENZAMIDES AS RADIOPHARMACEUTICALS” (Institut National De La Sante et De La Recherche Medicale …, priority 2006, published 2010)
Where a name gives a salt, the structure may show the parent alone.

Legend:
murine melanoma (B16 F0) = assay: Cytotoxicity, Hoechst test, B16 F0
Description: The B16 F0, M4Beu and fibroblast lines are cultured in 75 cm^2 dishes comprising 12 ml of Eagle's essential medium with Earle's salts and Glutamax (Gibco-BRL, Paisley, Scotland) supplemented with 10% foetal calf serum, a solution of vitamins at 1× (Gibco), 1 mM sodium pyruvate (Gibco), a solution of nonessential amino acids at 1× (Gibco) and 4 μg/ml of gentamicin (antibiotic).
The cells are maintained at 37° C. in an incubator under an atmosphere comprising 5% CO2.
The cells (5×10^3) in 150 μl of culture medium are inoculated in 96-well plates (Nunclon™, Nunc, Roskilde, Denmark). […] The stock solutions (200×) are prepared with DMSO and are then stored at −20° C. 50 μl of a solution comprising stock solution and culture medium are subsequently added to the various wells (taking into account the different dilutions). Each test is carried out in triplicate.
The amount of cellular DNA is subsequently measured by the Hoechst test. The plates are then defrosted at ambient temperature for 10 minutes. 100 μl of a 0.01% (w/v) solution of SDS (sodium dodecyl sulphate) in sterile distilled water are subsequently added using a microvolume dispenser. The plates (96 well) are incubated with stirring at ambient temperature for 30 minutes and are then frozen at −80° C. for one hour. The plates are subsequently defrosted at ambient temperature for 20 minutes. […] The plates are then incubated for one hour at ambient temperature, with stirring and with the exclusion of light. The fluorescence obtained is measured using a Fluoroskan 96-well at the excitation wavelength at 360 nm and emission wavelength at 460 nm. Under these conditions, the fluorescence is proportional to the cell biomass in each well. The percentage of survival is defined by the fluorescence in each well (treated) with respect to the fluorescence of the control wells (drug-free), the blanks being subtracted (drug-free and cell-free wells).

tumour = assay: Dosimetry with regard to the tumour (MIRD programme, extrapolated to ^131I)
[1] = tested on: grafted B16 F0 murine melanoma tumour; assay: Biodistribution of the ^125I-labelled molecules in the melanoma-bearing mouse (autoradiography of whole-body sections)
[2] = tested on: B16 F0 murine melanoma cells; assay: Colony forming technique: chemotherapeutic and radiotherapeutic (^125I) effects in vitro; type: cell-based; conditions: for % of inhibition (Radiotherapeutic effects alone): 125I-labelled, high specific activity; for % of inhibition: radiotherapeutic effects alone
Description: The colony forming technique is involved, that is to say the growth of colonies of clones starting from tumour cells (B16 F0 murine melanoma cells) inoculated at a low concentration. This method makes it possible to visualize the cytotoxic and cytostatic properties of the compounds studied. The study was carried out in three parts:
The experiment is carried out on 6-well plates where 200 cells are inoculated in 2 ml of DMEM medium. After 20 hours, the medium is withdrawn and replaced with 2 ml of medium comprising the labelled compound at the desired concentration. This study is carried out in comparison with control wells comprising DMEM medium alone. […] The plates are incubated for 8 days and then the medium is withdrawn. The wells are rinsed with PBS and methanol is added for 3 minutes. Once attached, the cells are coloured with crystal violet with a contact time of 3 minutes. Subsequently, the colonies comprising more than 50 cells are counted using a dedicated counter. The growth of the treated colonies of cells is quantified in comparison with the controls. The activity of the product is expressed by a percentage of inhibition:
100−[(number of treated colonies)/(number of control colonies)]×100

CCN(CC)CCNC(=O)c1cccc2cc3cccc(I)c3nc12 [compound 102, N-(2-diethylaminoethyl)-5-iodoacridine-4-carboxamide dihydrochloride]
cytotoxic activity compared with DACA (in words) (murine melanoma (B16 F0); various cell lines studied (B16 F0, M4Beu, fibroblasts)): greater activity than the parent compound | Effective period (tumour; extrapolated to 131I labelling): 35.4 h | Biological period (tumour; from biodistribution data): 43.3 hours | Biodistribution, Mean, GB ([1]; 1 H): 281.34 | Biodistribution, Mean, GB ([1]; 6 H): 281.20 | Biodistribution, Mean, muscle ([1]; 1 H): 2.34 | Biodistribution, Mean, muscle ([1]; 3 H): 1.34 | Biodistribution, Mean, muscle ([1]; 6 H): 1.36

CCN(CC)CCNC(=O)c1cccc2cc3cccc([125I])c3nc12.Cl.Cl [[^125I]-102, [^125I]-N-(2-diethylaminoethyl)-5-iodoacridine-4-carboxamide dihydrochloride]
% of inhibition (Radiotherapeutic effects alone) ([2]; 1.39 kBq, 8.625 pM): 11% | % of inhibition (Radiotherapeutic effects alone) ([2]; 2.78 kBq, 17.25 pM): 14.3% | % of inhibition (Radiotherapeutic effects alone) ([2]; 5.55 kBq, 34.5 pM): 40.3% | % of inhibition (Radiotherapeutic effects alone) ([2]; 11.1 kBq, 69 pM): 65.5% | % of inhibition (Radiotherapeutic effects alone) ([2]; 16.7 kBq, 103.5 pM): 79% | % of inhibition (Radiotherapeutic effects alone) ([2]; 22.2 kBq, […]): 96.1% | Cumulative effect (% inhib) (Radiotherapeutic and chemotherapeutic effects) ([2]; cold compound 102 at 6.25 nM with [125I]-102 1.39 kBq): 30% | Cumulative effect (% inhib) (Radiotherapeutic and chemotherapeutic effects) ([2]; cold compound 102 at 6.25 nM with [125I]-102 2.78 kBq): 37.5% | Cumulative effect (% inhib) (Radiotherapeutic and chemotherapeutic effects) ([2]; cold compound 102 at 6.25 nM with [125I]-102 5.55 kBq): 59.5% | Cumulative effect (% inhib) (Radiotherapeutic and chemotherapeutic effects) ([2]; cold compound 102 at 6.25 nM with [125I]-102 11.1 kBq): 76.5% | Cumulative effect (% inhib) (Radiotherapeutic and chemotherapeutic effects) ([2]; cold compound 102 at 6.25 nM with [125I]-102 16.7 kBq): 89%

CCN(CC)CCNC(=O)c1cccc2c(=O)c3cc([125I])ccc3[nH]c12.Cl.Cl [[^125I]-84, [^125I]-N-(2-diethylaminoethyl)-9,10-dihydro-7-iodo-9-oxoacridine-4-carboxamide dihydrochloride]
Cumulative effect (% inhib) ([2]; cold compound 84 at 0.75 μM with labelled [^125I]-84, activity 0): 17.3 % inhib | Cumulative effect (% inhib) ([2]; cold compound 84 at 0.75 μM with labelled [^125I]-84, activity 1.5 kBq): 18.3 % inhib | Cumulative effect (% inhib) ([2]; cold compound 84 at 0.75 μM with labelled [^125I]-84, activity 6 kBq): 22 % inhib | Cumulative effect (% inhib) ([2]; cold compound 84 at 0.75 μM with labelled [^125I]-84, activity 12 kBq): 40.3 % inhib | Cumulative effect (% inhib) ([2]; cold compound 84 at 0.75 μM with labelled [^125I]-84, activity 24 kBq): 54 % inhib | Cumulative effect (% inhib) ([2]; cold compound 84 at 0.75 μM with labelled [^125I]-84, activity 48 kBq): 88 % inhib | % of inhibition ([2]; activity 1.5 kBq, concentration 9.31 pM): 4.5% | % of inhibition ([2]; activity 6 kBq, concentration 37.23 pM): 12.4% | % of inhibition ([2]; activity 12 kBq, concentration 74.5 pM): 29% | % of inhibition ([2]; activity 24 kBq, concentration 148.9 pM): 30% | % of inhibition ([2]; activity 48 kBq, concentration 297.8 pM): 69%

COc1cc(NS(C)(=O)=O)ccc1Nc1c2ccccc2nc2ccccc12 [amsacrine, reference compound]
IC50 (murine melanoma (B16 F0); read-out: IC50 B16, B16 F0 murine melanoma, 48 hours incubation, Hoechst test): 35 nM

[125I-].[Na+] [Na^125I, sodium iodide Na^125I, reference compound]
effect on colony growth (in words) ([2]; comparison for the compounds labelled with iodine-125 with a high specific activity): without effect
